Where a name gives a salt, the structure may show the parent alone. Read-outs that look alike come from different tables or passages of the source.
Legend:
Experiment in all cases: AK assay 384-well format, Prestwick library screening
[1] = system: E. faecium; assay type: cell-based, Enterococcus faecium; details: for fold induction at 50 µM: Enterococcus faecium, 3 h
[2] = system: S. aureus strain USA300-0114; assay type: cell-based, Staphylococcus aureus; details: for fold induction at 50 µM: Staphylococcus aureus, USA300, 3 h
[3] = system: K. pneumoniae; assay type: cell-based, Klebsiella pneumoniae; details: for fold induction at 50 µM: Klebsiella pneumoniae, 3 h
[4] = system: A. baumannii strain 98-37-09; assay type: cell-based, Acinetobacter baumannii; details: for fold induction at 50 µM: Acinetobacter baumannii, 983709, 3 h
[5] = system: P. aeruginosa; assay type: cell-based, Pseudomonas aeruginosa; details: for fold induction at 50 µM: Pseudomonas aeruginosa, 3 h
[6] = system: E. cloacae; assay type: cell-based, Enterobacter cloacae; details: for fold induction at 50 µM: Enterobacter cloacae, 3 h
[7] = system: E. coli; assay type: cell-based, Escherichia coli; details: 50 μM final drug concentration; for fold induction at 50 µM: Escherichia coli, 3 h
[8] = 50 μM final drug concentration, 384-well format, cutoff for positive-scoring molecules 3-fold increase, read-out: AK-based Prestwick Library Screening Results, E. faecium (increase in extracellular AK activity)
[9] = 50 μM final drug concentration, 384-well format, cutoff for positive-scoring molecules 3-fold increase, read-out: AK-based Prestwick Library Screening Results, S. aureus (increase in extracellular AK activity)
[10] = 50 μM final drug concentration, 384-well format, cutoff for positive-scoring molecules 3-fold increase, read-out: AK-based Prestwick Library Screening Results, K. pneumoniae (increase in extracellular AK activity)
[11] = 50 μM final drug concentration, 384-well format, cutoff for positive-scoring molecules 3-fold increase, read-out: AK-based Prestwick Library Screening Results, A. baumannii (increase in extracellular AK activity)
[12] = 50 μM final drug concentration, 384-well format, cutoff for positive-scoring molecules 3-fold increase, read-out: AK-based Prestwick Library Screening Results, P. aeruginosa (increase in extracellular AK activity)
[13] = 50 μM final drug concentration, 384-well format, cutoff for positive-scoring molecules 3-fold increase, read-out: AK-based Prestwick Library Screening Results, E. cloacae (increase in extracellular AK activity)
[14] = 384-well format, cutoff for positive-scoring molecules 3-fold increase, read-out: AK-based Prestwick Library Screening Results, E. coli (increase in extracellular AK activity)
[15] = planktonic E. coli, positive cutoff 3-fold increase, read-out: AK-based Prestwick library screening result, E. coli (fold increase in extracellular AK activity)
[16] = 50 μM final drug concentration, […]
[17] = 50 μM final drug concentration, planktonic, cutoff for positive 3-fold increase
[18] = planktonic, cutoff for positive 3-fold increase
[19] = 50 μM final drug concentration, planktonic, […]

Compound: O=c1[nH]c(=O)n([C@H]2C[C@H](O)[C@@H](CO)O2)cc1C(F)(F)F [Trifluridine]
- fold induction at 50 µM ([1]; planktonic E. faecium, 50 μM final drug concentration, […], read-out: AK-based Prestwick library screening result, E. faecium (fold increase in extracellular AK activity)): 0.9
- fold induction at 50 µM ([2]; planktonic S. aureus, 50 μM final drug concentration, […], read-out: AK-based Prestwick library screening result, S. aureus (fold increase in extracellular AK activity)): 0.7
- fold induction at 50 µM ([3]; planktonic K. pneumoniae, 50 μM final drug concentration, […], read-out: AK-based Prestwick library screening result, K. pneumoniae (fold increase in extracellular AK activity)): 1.1
- fold induction at 50 µM ([4]; planktonic A. baumannii, 50 μM final drug concentration, […], read-out: AK-based Prestwick library screening result, A. baumannii (fold increase in extracellular AK activity)): 1.1
- fold induction at 50 µM ([5]; planktonic P. aeruginosa, 50 μM final drug concentration, […], read-out: AK-based Prestwick library screening result, P. aeruginosa (fold increase in extracellular AK activity)): 0.6
- fold induction at 50 µM ([6]; planktonic E. cloacae, 50 μM final drug concentration, […], read-out: AK-based Prestwick library screening result, E. cloacae (fold increase in extracellular AK activity)): 0.7
- fold induction at 50 µM ([7]; planktonic E. coli, […], read-out: AK-based Prestwick library screening result, E. coli (fold increase in extracellular AK activity)): 0.9

Compound: CCCNC(C)C(=O)Nc1ccccc1C (stereo not shown) [Prilocaine hydrochloride]
- fold induction at 50 µM [1, 8]: 0.9
- fold induction at 50 µM [2, 9]: 0.8
- fold induction at 50 µM [3, 10]: 0.7
- fold induction at 50 µM [4, 11]: 0.9
- fold induction at 50 µM [5, 12]: 0.9
- fold induction at 50 µM [6, 13]: 1.3
- fold induction at 50 µM [7, 14]: 0.9

Compound: CCC1(c2ccccc2)NC(=O)N(C)C1=O (stereo not shown) [Mephenytoin]
- fold induction at 50 µM ([1]; planktonic E. faecium, 50 μM final drug concentration, positive cutoff 3-fold increase, read-out: AK-based Prestwick library screening result, E. faecium (fold increase in extracellular AK activity)): 1
- fold induction at 50 µM ([2]; planktonic S. aureus, 50 μM final drug concentration, positive cutoff 3-fold increase, read-out: AK-based Prestwick library screening result, S. aureus (fold increase in extracellular AK activity)): 1.1
- fold induction at 50 µM ([3]; planktonic K. pneumoniae, 50 μM final drug concentration, positive cutoff 3-fold increase, read-out: AK-based Prestwick library screening result, K. pneumoniae (fold increase in extracellular AK activity)): 1
- fold induction at 50 µM ([4]; planktonic A. baumannii, 50 μM final drug concentration, positive cutoff 3-fold increase, read-out: AK-based Prestwick library screening result, A. baumannii (fold increase in extracellular AK activity)): 1.3
- fold induction at 50 µM ([5]; planktonic P. aeruginosa, 50 μM final drug concentration, positive cutoff 3-fold increase, read-out: AK-based Prestwick library screening result, P. aeruginosa (fold increase in extracellular AK activity)): 1
- fold induction at 50 µM ([6]; planktonic E. cloacae, 50 μM final drug concentration, positive cutoff 3-fold increase, read-out: AK-based Prestwick library screening result, E. cloacae (fold increase in extracellular AK activity)): 1.3
- fold induction at 50 µM [7, 15]: 1.1

Compound: Cl.NCC(O)c1ccc(O)cc1 (racemic) [(+,−)-Octopamine hydrochloride]
- AK-based Prestwick Library Screening Results, E. faecium (fold increase in extracellular AK activity) [1, 16]: 1.0
- AK-based Prestwick Library Screening Results, S. aureus (fold increase in extracellular AK activity) [2, 16]: 1.3
- AK-based Prestwick Library Screening Results, K. pneumoniae (fold increase in extracellular AK activity) [3, 16]: 1.1
- AK-based Prestwick Library Screening Results, A. baumannii (fold increase in extracellular AK activity) [4, 16]: 1.3
- AK-based Prestwick Library Screening Results, P. aeruginosa (fold increase in extracellular AK activity) [5, 16]: 1.0
- AK-based Prestwick Library Screening Results, E. cloacae (fold increase in extracellular AK activity) [6, 16]: 1.4
- AK-based Prestwick Library Screening Results, E. coli (fold increase in extracellular AK activity) ([7]; […]): 1.3

Compound: Oc1cc(O)c2c(c1)O[C@H](c1ccc(O)c(O)c1)[C@H](O)C2 [Epicatechin-(−)]
- AK-based Prestwick Library Screening Results, E. faecium (fold increase in extracellular AK activity) [1, 17]: 0.9
- AK-based Prestwick Library Screening Results, S. aureus (fold increase in extracellular AK activity) [2, 17]: 0.3
- AK-based Prestwick Library Screening Results, K. pneumoniae (fold increase in extracellular AK activity) [3, 17]: 0.4
- AK-based Prestwick Library Screening Results, A. baumannii (fold increase in extracellular AK activity) [4, 17]: 0.3
- AK-based Prestwick Library Screening Results, P. aeruginosa (fold increase in extracellular AK activity) [5, 17]: 0.3
- AK-based Prestwick Library Screening Results, E. cloacae (fold increase in extracellular AK activity) [6, 17]: 0.3
- AK-based Prestwick Library Screening Results, E. coli (fold increase in extracellular AK activity) [7, 18]: 0.4

Compound: CCN1CCCC(OC(=O)C(c2ccccc2)c2ccccc2)C1 (stereo not shown) [Piperidolate hydrochloride]
- fold induction at 50 µM ([1]; read-out: AK-based Prestwick library screening result, E. faecium (fold increase in extracellular AK activity)): 1
- fold induction at 50 µM ([2]; read-out: AK-based Prestwick library screening result, S. aureus (fold increase in extracellular AK activity)): 0.6
- fold induction at 50 µM ([3]; read-out: AK-based Prestwick library screening result, K. pneumoniae (fold increase in extracellular AK activity)): 0.6
- fold induction at 50 µM ([4]; read-out: AK-based Prestwick library screening result, A. baumannii (fold increase in extracellular AK activity)): 0.6
- fold induction at 50 µM ([5]; read-out: AK-based Prestwick library screening result, P. aeruginosa (fold increase in extracellular AK activity)): 0.7
- fold induction at 50 µM ([6]; read-out: AK-based Prestwick library screening result, E. cloacae (fold increase in extracellular AK activity)): 0.7
- fold induction at 50 µM [7, 15]: 0.7

Compound: Mephentermine hemisulfate
- AK-based Prestwick Library Screening Results, E. faecium (fold increase in extracellular AK activity) [1, 19]: 0.8
- AK-based Prestwick Library Screening Results, S. aureus (fold increase in extracellular AK activity) [2, 19]: 0.4
- AK-based Prestwick Library Screening Results, K. pneumoniae (fold increase in extracellular AK activity) [3, 19]: 0.5
- AK-based Prestwick Library Screening Results, A. baumannii (fold increase in extracellular AK activity) [4, 19]: 0.4
- AK-based Prestwick Library Screening Results, P. aeruginosa (fold increase in extracellular AK activity) [5, 19]: 0.4
- AK-based Prestwick Library Screening Results, E. cloacae (fold increase in extracellular AK activity) [6, 19]: 0.4
- AK-based Prestwick Library Screening Results, E. coli (fold increase in extracellular AK activity) ([7]; planktonic, […]): 0.5

Compound: C=C[C@H]1CN2CC[C@H]1C[C@H]2[C@H](O)c1ccnc2ccccc12 [(−)-Cinchonidine]
- AK-based Prestwick Library Screening Results, E. faecium (fold increase in extracellular AK activity) [1, 17]: 1.0
- AK-based Prestwick Library Screening Results, S. aureus (fold increase in extracellular AK activity) [2, 17]: 0.9
- AK-based Prestwick Library Screening Results, K. pneumoniae (fold increase in extracellular AK activity) [3, 17]: 0.8
- AK-based Prestwick Library Screening Results, A. baumannii (fold increase in extracellular AK activity) [4, 17]: 1.1
- AK-based Prestwick Library Screening Results, P. aeruginosa (fold increase in extracellular AK activity) [5, 17]: 1.1
- AK-based Prestwick Library Screening Results, E. cloacae (fold increase in extracellular AK activity) [6, 17]: 1.6
- AK-based Prestwick Library Screening Results, E. coli (fold increase in extracellular AK activity) [7, 18]: 1.3

Compound: CN1CCN(C2=Nc3cc(Cl)ccc3Nc3ccccc32)CC1 [Clozapine]
- fold induction at 50 µM ([1]; planktonic E. faecium, 50 μM final drug concentration, cutoff for positive-scoring molecules 3-fold increase, read-out: AK-based Prestwick Library Screening Results, E. faecium (increase in extracellular AK activity)): 0.9
- fold induction at 50 µM ([2]; planktonic S. aureus, 50 μM final drug concentration, cutoff for positive-scoring molecules 3-fold increase, read-out: AK-based Prestwick Library Screening Results, S. aureus (increase in extracellular AK activity)): 0.7
- fold induction at 50 µM ([3]; planktonic K. pneumoniae, 50 μM final drug concentration, cutoff for positive-scoring molecules 3-fold increase, read-out: AK-based Prestwick Library Screening Results, K. pneumoniae (increase in extracellular AK activity)): 0.8
- fold induction at 50 µM ([4]; planktonic A. baumannii, 50 μM final drug concentration, cutoff for positive-scoring molecules 3-fold increase, read-out: AK-based Prestwick Library Screening Results, A. baumannii (increase in extracellular AK activity)): 0.9
- fold induction at 50 µM ([5]; planktonic P. aeruginosa, 50 μM final drug concentration, cutoff for positive-scoring molecules 3-fold increase, read-out: AK-based Prestwick Library Screening Results, P. aeruginosa (increase in extracellular AK activity)): 1
- fold induction at 50 µM ([6]; planktonic E. cloacae, 50 μM final drug concentration, cutoff for positive-scoring molecules 3-fold increase, read-out: AK-based Prestwick Library Screening Results, E. cloacae (increase in extracellular AK activity)): 1
- fold induction at 50 µM ([7]; planktonic E. coli, cutoff for positive-scoring molecules 3-fold increase, read-out: AK-based Prestwick Library Screening Results, E. coli (increase in extracellular AK activity)): 0.9

Compound: CCCCOc1ccc(C(=O)CCN2CCCCC2)cc1 [Dyclonine hydrochloride]
- fold induction at 50 µM [1, 8]: 1
- fold induction at 50 µM [2, 9]: 0.9
- fold induction at 50 µM [3, 10]: 0.7
- fold induction at 50 µM [4, 11]: 0.9
- fold induction at 50 µM [5, 12]: 1
- fold induction at 50 µM [6, 13]: 1.1
- fold induction at 50 µM [7, 14]: 1

Source: US10004701B2, “Methods and compositions for treating infection” (UNIVERSITY OF ROCHESTER, priority 2012, dated 2018)
